Measured values taken from US9446034B2, “Pyrazolylaminopyridines as inhibitors of FAK” (GlaxoSmithKline LLC, priority 2008, dated 2016).

Assays:
GST-tagged FAK = target: T1, GST-tagged FAK (Homo sapiens, UniProt Q05397); experiment: Biochemical assay for FAK activity, Assay 1: GST-FAK, peptide substrate phosphorylation with 33P-ATP; details: 5 μM ATP, 30 min pre-incubation, read-out: Assay 1 FAK TRF PXC50 (converted)
T1 construct: purchased Invitrogen PV3832
Procedure: (§1) Biochemical Assay for FAK Activity
To measure inhibitors of FAK, compounds were first prepared as a 10× stock in 10% DMSO. […] A 6-nM GST-FAK solution was prepared in 1.1× reaction buffer containing 44 mM HEPES, pH=7.2, 11 mM MgCl2, 2.2 mM MnCl2, 1.1 mM DTT and 0.011% Tween-20. Then, 20 μL of the 6 nM GST-FAK solution were pre-incubated with the compounds for 30 min at room temperature. […] The reaction was allowed to proceed for 90 min before being quenched with 40 μL of 1% H3PO4. A portion of the reaction mixture (60 μL) was transferred to a phospho-cellulose filter plate (Millipore; www.millipore.com, MAPHNOB50) and incubated for 20 minutes. The plate was filtrated, washed three times using 150 μL of 0.5% H3PO4 and dried at 50° C. for 30 min. After the addition of 60 μL Microscint-20 to the plate, radioactivity was measured using a TopCount (PerkinElmer; www.PerkinElmer.com).

[1] = target: T2, Full length Human FAK (FLAG-6×His-TEV-huFAK) (Homo sapiens, UniProt Q05397); experiment: Biochemical assay for FAK activity, Assay 2: Flag-His-TEV-FAK1, LANCE Ultra ULight peptide phosphorylation; details: Flag-His-TEV-FAK1, 10 μM ATP, 30 min pre-incubation; read-out: Assay 2 FAK H 31284A TRF PXC50 (converted)
T2 construct: Full length Human FAK was expressed using baculovirus in Sf9 cells; made in house; host or cells: baculovirus in Sf9 cells
Procedure: as §1
Assay 2: Flag-His-TEV-FAK1 was prepared in-house. Full length Human FAK was expressed using baculovirus in Sf9 cells with N-terminal FLAG-6×His tags followed by a TEV cleavage site (FLAG-6×His-TEV-huFAK). […] To measure inhibitors of FAK, compounds were first prepared as a 100× stock in 100% DMSO. A small portion of each compound solution (50 nL) was added to a black 384-well low-volume microtiter plate (Greiner 784076). A 1.2 nM Flag-His-TEV-FAK1 solution was prepared in 1× reaction buffer containing 40 mM Tris/Tris-HCL, 10 mM MgCl2, 1 mM CHAPS, at a pH of 7.5, with 1 mM DTT added. 2.5 ul of the 1.2 nM Flag-FAK solution was added to the plates and pre-incubated with the compounds for 30 min at room temperature. […] After incubating for 120 minutes at room temperature, the reaction is quenched by adding 5 uL of 20 mM EDTA and 5nMEu-Anti-pTyr antibody in 1× LANCE detection buffer. After a 30 minute incubation at room temperature, the plate is read on a Perkin Elmer Viewlux with a 320-340 nm excitation filter and measuring emission at 615 nm and 665 nm. The ratio of 665 nm/615 nm is used for data normalization.

T2 sequence (Q05397 whole entry): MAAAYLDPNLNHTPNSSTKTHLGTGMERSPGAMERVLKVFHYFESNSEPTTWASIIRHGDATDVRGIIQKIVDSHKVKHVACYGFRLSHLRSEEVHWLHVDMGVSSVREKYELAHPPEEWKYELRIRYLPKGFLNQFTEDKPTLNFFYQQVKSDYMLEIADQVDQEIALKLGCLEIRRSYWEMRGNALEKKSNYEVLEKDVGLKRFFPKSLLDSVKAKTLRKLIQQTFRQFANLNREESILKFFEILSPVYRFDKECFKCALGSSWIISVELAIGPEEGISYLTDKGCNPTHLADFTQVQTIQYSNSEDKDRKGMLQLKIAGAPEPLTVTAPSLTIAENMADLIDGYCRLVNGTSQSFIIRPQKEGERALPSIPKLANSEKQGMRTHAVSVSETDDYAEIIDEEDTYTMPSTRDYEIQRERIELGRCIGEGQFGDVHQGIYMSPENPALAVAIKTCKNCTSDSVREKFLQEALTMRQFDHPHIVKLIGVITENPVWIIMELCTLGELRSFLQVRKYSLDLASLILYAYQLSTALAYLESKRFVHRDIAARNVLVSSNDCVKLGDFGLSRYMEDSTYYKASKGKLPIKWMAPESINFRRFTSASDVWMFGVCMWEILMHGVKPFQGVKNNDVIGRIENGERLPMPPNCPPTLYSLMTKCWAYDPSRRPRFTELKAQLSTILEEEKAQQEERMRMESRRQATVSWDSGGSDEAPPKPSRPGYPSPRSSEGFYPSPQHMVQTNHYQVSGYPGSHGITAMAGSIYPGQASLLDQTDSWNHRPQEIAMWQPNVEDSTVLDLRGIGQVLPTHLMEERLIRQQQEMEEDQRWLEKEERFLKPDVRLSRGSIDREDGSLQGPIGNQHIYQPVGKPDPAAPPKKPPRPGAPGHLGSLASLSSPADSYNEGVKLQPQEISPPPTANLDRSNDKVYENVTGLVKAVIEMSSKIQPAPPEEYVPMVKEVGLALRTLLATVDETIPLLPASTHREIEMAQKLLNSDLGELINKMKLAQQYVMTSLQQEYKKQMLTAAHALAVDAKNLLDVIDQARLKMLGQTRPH
T1 sequence (Q05397 whole entry): as above

IC50 (GST-tagged FAK) [nM] | IC50 [1] [nM] | SMILES
0.794 | 10 | CCn1nccc1Nc1cc(Nc2cc(F)c(F)cc2C(=O)NC)c(Cl)cn1 [Example 10, 2-({5-Chloro-2-[(1-ethyl-1H-pyrazol-5-yl)amino]-4-pyridinyl}amino)-4,5-difluoro-N-methylbenzamide]
6.31 | 63.1 | CCNC(=O)c1ccccc1Nc1cc(Nc2ccnn2CC)ncc1Cl [Example 44, 2-({5-Chloro-2-[(1-ethyl-1H-pyrazol-5-yl)amino]-4-pyridinyl}amino)-N-ethylbenzamide]
